Assay results published in patent US10556860B2, “hTERT modulators and methods of use” (Arizona Board of Regents on Behalf of the University of …, priority 2015, dated 2020).

What was measured:
G124A 5-12 G-quadruplex = experiment: CD kinetics, temperature-jump, G124A; assay type: biochemical, human; conditions: 2 equiv
Procedure: (§1) FIGS. 10A and 10B are a set of graphs showing (A) comparison of kinetics of initial folding rate of the WT 5-12 G-quadruplex with GTC365 and BRACO-19 by the temperature-jump method. (B) Enhanced initial folding rate of the 5-12 G-quadruplexes carrying different hTERT mutants by GTC365. The time-course CD signal of preheated oligo with compound or DMSO in a buffer containing 10 mM Tris-HCl (pH 7.5) and 5 mM KCl was monitored at 262 nm and 25° C.
(§2) For the kinetics analysis using the temperature-jump method, theoligo in a buffer containing 10 mM Tris-HCl (pH 7.5) was heated forl min at 95° C., and then a mixture of KCl and compound was addedand incubated for 1 min. Meanwhile, the CD cuvette was also heatedat 95° C. As soon as the sample in the CD cuvette at the hightemperature was placed in the CD chamber, a time-dependent CDsignal at 262 nm was recorded immediately. The initial folding ratewas determined by one-phase association curve fitting (eq 1) of thekinetics curve using GraphPad Prism 5: Y=Y0+(Plateau−Y0)*(1−e^−kx) (1) where Y is the CD signal at any time point x, Y0 is the Y value whentime (x) is zero, plateau is the Y value at infinite time, and k is the rateconstant.
(§3) To evaluate the comparative effects of GTC365 relative to BRACO-19 on the cooperative folding process, we carried out two different experiments. […]

[1] = tested on: G124/125A 5-12 G-quadruplex; experiment: CD kinetics, temperature-jump, G124/125A; assay type: biochemical, human; conditions: 2 equiv
Procedure: as §1, §2, §3

G146A 5-12 G-quadruplex = experiment: CD kinetics, temperature-jump, G146A; assay type: biochemical, human; conditions: 2 equiv
Procedure: as §1, §2, §3

hTERT protein = experiment: Western blot of hTERT protein in MCF7 cells; assay type: cell-based, human
Procedure: Western blot analysis. GTC365- or DMSO-treated MCF7 cells were lysed by RIPA buffer and the supernatant of lysate was obtained by centrifugation at 14,000 rpm for 15 min. The concentration of the whole cellular protein was determined by Bradford assay. The same amount of proteins (120 μg) was separated on 8% SDS-PAGE and transferred to PVDF membrane in 20% MeOH/1× Tris-glycine. The membrane was incubated in a blocking buffer containing 5% BSA/5% non-fat milk with TBS-T (0.1% Tween 20) for 90 min at room temperature prior to overnight incubation with hTERT antibody against rabbit (1:200, Santa Cruz #H231, pAb) in 5% BSA/TBS-T buffer at 4° C. […]
Immunoblot analysis. […] The concentration of the whole cellular protein was determined byBradford assay. […]
BCL2 is a downstream molecule to hTERT such that BCL2 expression is activated by hTERT to repress apoptosis. To further define the effect of GTC365 on the transcription of hTERT, the relative mRNA levels of MYC and BCL2 were determined by quantitative PCR analysis in MCF7 cells after treatment with GTC365 for 72 h. […] A series of GTC260 analogs were synthesized and their effect on hTERT gene expression in MCF7A and U87 cells determined (FIG. 7). […]

With `N=C(N)NCCCS(=O)(=O)Nc1ccc(Nc2c3ccccc3nc3cc([N+](=O)[O-])ccc23)cc1` [GTC365] as the compound, how does the “increase of initial folding rate” value (G124A 5-12 G-quadruplex) read?
The value was 0.049 s⁻¹.

What about the “increase of initial folding rate” value [1] of the same compound?
The value was 0.042 s⁻¹.

What about the “increase of initial folding rate” value (G146A 5-12 G-quadruplex) of the same compound?
Its value is 0.054 s⁻¹.

What about the hTERT protein level (hTERT protein) of the same compound?
Its hTERT protein level is “downregulated”.
